According to publication PMC11578313, “Miniaturized Modular Click Chemistry‐enabled Rapid Discovery of Unique SARS‐CoV‐2 M^pro Inhibitors With Robust Potency and Drug‐like Profile” (Advanced Science, 2024):

How the values were obtained:
[1] = test system: SARS‐CoV‐2 Gamma (hCoV‐19/Korea/KDCA95637/2021); assay: microbe, parasite or virus in culture; format: cell-based; conditions: Severe acute respiratory syndrome coronavirus 2; Calu‐3; read-out: EC50 ± SD, SARS‐CoV‐2 Gamma
[2] = test system: SARS‐CoV‐2 Omicron (hCoV‐19/Korea/KDCA447321/2021); assay: microbe, parasite or virus in culture; format: cell-based; conditions: Severe acute respiratory syndrome coronavirus 2, Calu-3, read-out: EC50 ± SD, SARS‐CoV‐2 Omicron
[3] = in vitro; conditions: human
[4] = test system: Kunming mice; assay: Acute toxicity experiment; format: in vivo
Method: (§1) The acute and subacute toxicity of C5N17B were assessed in Kunming mice. In the acute toxicity study, one group received an oral dose of 500 mg kg^−1 of C5N17B. In the subacute toxicity study, a different group was administered a lower dose of 50 mg kg^−1 of C5N17B. Each experimental set included a control group that received only the vehicle treatment.
(§2) Kunming mice were group housed both during acclimation and the study period. The animal room environment was controlled to maintain specific target conditions, including a temperature range of 20 °C to 25 °C, relative humidity levels between 40% and 70%, and an alternating schedule of artificial light for 12 h followed by 12 h of darkness. The age of Kunming mice in the acute/subacute toxicity study was 3–4 weeks, and the body weights were ≈20 g. All animal experiments related to this study were approved by the ethics committee of Cheeloo College of Medicine (approval No. 230014), Shandong University (Jinan, China) Procedures performed in the studies were guided by the ethical standards of the institution.
A group of Kunming mice (comprising three males and three females) was supplied by the Animal Experimental Center of Shandong University. […]

[5] = test system: HCoV‐229E; assay: microbe, parasite or virus in culture; format: cell-based
[6] = test system: Kunming mice; assay: Subacute toxicity experiment; format: in vivo
Method: as §1, §2
A group of Kunming mice (comprising three males and three females) was supplied by the Animal Experimental Center of Shandong University. The mice underwent a 12 h fasting period, followed by oral administration of a suspension containing C5N17B in 0.5% CMC‐Na and 3% DMSO at the concentration of 100 mg mL^−1 to achieve an acute toxicity dose of 500 mg kg^−1. In the subacute toxicity experiment, the test group received 50 mg kg^−1 of C5N17B orally, with another group serving as a control. The experimental group and control group each consist of six mice, with an equal distribution of three males and three females.

[7] = test system: SARS‐CoV‐2 viral RNA; format: cell-based
[8] = test system: MERS‐CoV; assay: microbe, parasite or virus in culture; format: cell-based
[9] = molecular target: SARS‐CoV‐2 M^pro (Severe acute respiratory syndrome coronavirus 2, UniProt P0DTD1); assay: SARS‐CoV‐2 main protease enzymatic assay (FRET inhibitor screening kit); format: biochemical

In the case of Cc1cncc(C(=O)N2C[C@H]3CC[C@@H](C2)N3[C@H](c2cccc(F)c2)c2cn(CCc3ccsc3)nn2)c1 [Compound C5N17B], the EC50 [1] is reported as 0.26 ± 0.013 µM, the EC50 [2] is reported as 0.135 ± 0.003 µM and the CC50 [3] is reported as over 100 µM. It also gave a CC50 at 2 day ([3]; CC50 (Table 3), Calu‐3 cells) of over 100 µM, a CC50 at 2 day ([3]; CC50, Calu‐3 cells, MTT assay) of over 100 µM and a CC50 at 2 day ([3]; CC50, column 9, after the Calu-3 EC50 columns) of over 100 µM. The “body weight compared to the control group, acute toxicity” value ([4]; 500 mg kg^−1, 7 days) was “no significant changes in body weight”, the “fatalities or abnormal behavior, acute toxicity” value ([4]; oral dose of 500 mg kg^−1, Kunming mice) was “No fatalities or abnormal behavior” and the EC50 ([5]; Human coronavirus 229E, MRC5, read-out: EC50 ± SD, HCoV‐229E) was over 100 µM. The “EC50 ± SD, HCoV‐229E” value ([5]; MRC‐5) was “failed to inhibit”, the “body weight compared to the control group, subacute toxicity” value ([6]; 50 mg kg^−1, 15 days) was “no significant changes in body weight” and the “examination of vital organs, hematoxylin and eosin‐stained slices” value ([6]; heart, liver, spleen, lung, kidney, subacute toxicity study) was “no significant pathological abnormalities”. For the same molecule, the “fatalities or abnormal behavior, subacute toxicity” value ([6]; oral 50 mg kg^−1, Kunming mice) was “No fatalities or abnormal behavior”, the “reduction in viral RNA” value [7] was “exceeded 3 log orders” and the “decrease in viral RNA copy number compared to 10.0 µM nirmatrelvir” value ([7]; 0.041 µM) was 20 fold. For the same molecule, the “EC50 ± SD, MERS‐CoV” value [8] was “failed to inhibit”, the EC50 ([8]; Middle East respiratory syndrome-related coronavirus, Huh-7, read-out: EC50 ± SD, MERS‐CoV) was over 100 µM and the IC50 [9] was 0.12 µM. The inhibition at 5 µM ([9]; 5 μM, read-out: Inhibitionrate at @5μM) was 99.6% and the “fold stronger enzyme inhibitory activity than C5N17A” value ([9]; IC50 ratio) was 27 fold.
